Results published in ChEMBL document CHEMBL1201862, “PubChem BioAssay data set” (2004).
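Method: 48-hour compound exposure of cells in 96-well plates, five concentrations, linear interpolation of endpoints. GI50 is the concentration that inhibits growth by half.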 Active and inactive are the calls of the source. No stated cut-off is given here; in the data, active = GI50 up to about 1.1 µM and inactive = higher.

Legend:
Assay in all cases: inhibition of tumour cell growth, NCI panel, 48 h
[1] = system: 786-0
[2] = system: HOP-62
[3] = system: KM12
[4] = system: SK-MEL-5
[5] = system: SR
[6] = system: UACC-62
[7] = system: MDA-MB-435
[8] = system: SF-268
[9] = system: TK-10
[10] = system: Malme-3M
[11] = system: SF-295
[12] = system: SK-MEL-28
[13] = system: NCI-H23
[14] = system: OVCAR-5
[15] = system: SW-620
[16] = system: RXF 393
[17] = system: M14
[18] = system: COLO 205
[19] = system: HL-60
[20] = system: IGROV-1

SMILES: COc1ccc([I+]c2ccc(OC)cc2)cc1
- GI50 [1]: 50.7 µM (inactive)
- GI50 [2]: 12.1 µM (inactive)
- GI50 [3]: 28.9 µM (inactive)
- GI50 [4]: 5.75 µM (inactive)
- GI50 [5]: > 50.5 µM (inactive)
- GI50 [6]: > 100 µM (inactive)
- GI50 [7]: > 56.5 µM (inactive)
- GI50 [8]: > 84.5 µM (inactive)
- GI50 [9]: > 100 µM (inactive)
- GI50 [10]: 20.2 µM (inactive)
- GI50 [11]: 30 µM (inactive)
- GI50 [12]: 73.6 µM (inactive)
- GI50 [13]: 13 µM (inactive)
- GI50 [14]: > 100 µM (inactive)
- GI50 [15]: > 91.8 µM (inactive)
- GI50 [16]: > 100 µM (inactive)
- GI50 [17]: 54.8 µM (inactive)
- GI50 [18]: 60.5 µM (inactive)
- GI50 [19]: 27 µM (inactive)
- GI50 [20]: > 66.8 µM (inactive)

SMILES: COC1(c2cccs2)c2ccccc2C(OC)(c2cccs2)c2ccccc21 (stereo not given)
- GI50 [1]: 35.3 µM (inactive)
- GI50 [2]: 42.3 µM (inactive)
- GI50 [3]: > 100 µM (inactive)
- GI50 [4]: > 100 µM (inactive)
- GI50 [5]: 40.7 µM (inactive)
- GI50 [6]: 47.3 µM (inactive)
- GI50 [7]: > 100 µM (inactive)
- GI50 [8]: 48.5 µM (inactive)
- GI50 [9]: 36.8 µM (inactive)
- GI50 [10]: > 100 µM (inactive)
- GI50 [11]: 28.3 µM (inactive)
- GI50 [12]: > 100 µM (inactive)
- GI50 [13]: 23.9 µM (inactive)
- GI50 [14]: 44.4 µM (inactive)
- GI50 [15]: > 100 µM (inactive)
- GI50 [16]: 52.4 µM (inactive)
- GI50 [17]: 81.1 µM (inactive)
- GI50 [18]: 85.5 µM (inactive)
- GI50 [19]: > 100 µM (inactive)
- GI50 [20]: > 100 µM (inactive)

SMILES: CC(C(=O)[O-])S(=O)(=O)O.CCc1c2cc(OC)c(OC)cc2cc2c3cc(OC)c(OC)cc3cc[n+]12
- GI50 [1]: 36.9 µM (inactive)
- GI50 [2]: 41.7 µM (inactive)
- GI50 [3]: 17.8 µM (inactive)
- GI50 [4]: 15.3 µM (inactive)
- GI50 [5]: 13.3 µM (inactive)
- GI50 [6]: 7.91 µM (inactive)
- GI50 [7]: 4.27 µM (inactive)
- GI50 [8]: 1.11 µM (active)
- GI50 [9]: 69.7 µM (inactive)
- GI50 [10]: 8.79 µM (inactive)
- GI50 [11]: 67.3 µM (inactive)
- GI50 [12]: 21.7 µM (inactive)
- GI50 [13]: 15.9 µM (inactive)
- GI50 [14]: 58.7 µM (inactive)
- GI50 [15]: 26.5 µM (inactive)
- GI50 [16]: 65.2 µM (inactive)
- GI50 [17]: 51.1 µM (inactive)
- GI50 [18]: 4.78 µM (inactive)
- GI50 [19]: 20.8 µM (inactive)
- GI50 [20]: 41.5 µM (inactive)

SMILES: CC(CCC(=O)O)(c1cc(Br)c(O)c(Br)c1)c1cc(Br)c(O)c(Br)c1
- GI50 [1]: > 100 µM (inactive)
- GI50 [2]: 96.2 µM (inactive)
- GI50 [3]: 45.1 µM (inactive)
- GI50 [4]: 29.4 µM (inactive)
- GI50 [5]: 39.1 µM (inactive)
- GI50 [6]: 41 µM (inactive)
- GI50 [7]: 65.8 µM (inactive)
- GI50 [8]: 59.7 µM (inactive)
- GI50 [9]: > 100 µM (inactive)
- GI50 [10]: 58.9 µM (inactive)
- GI50 [11]: 98.4 µM (inactive)
- GI50 [12]: 45 µM (inactive)
- GI50 [13]: 47.4 µM (inactive)
- GI50 [14]: > 100 µM (inactive)
- GI50 [15]: 84.3 µM (inactive)
- GI50 [16]: 54.8 µM (inactive)
- GI50 [17]: 33.3 µM (inactive)
- GI50 [18]: > 100 µM (inactive)
- GI50 [19]: 21.4 µM (inactive)
- GI50 [20]: 88.3 µM (inactive)

SMILES: COc1ccc(N2C(=O)C3c4[nH]c5ccc(OCc6ccccc6)cc5c4C4CCC(C(C)(C)C)CC4C3C2=O)cc1 (stereo not given)
- GI50 [1]: 27.9 µM (inactive)
- GI50 [2]: > 100 µM (inactive)
- GI50 [3]: > 100 µM (inactive)
- GI50 [4]: > 100 µM (inactive)
- GI50 [5]: > 100 µM (inactive)
- GI50 [6]: > 100 µM (inactive)
- GI50 [7]: 97.7 µM (inactive)
- GI50 [8]: > 100 µM (inactive)
- GI50 [9]: 54.5 µM (inactive)
- GI50 [10]: 25.7 µM (inactive)
- GI50 [11]: > 100 µM (inactive)
- GI50 [12]: 65.6 µM (inactive)
- GI50 [13]: > 100 µM (inactive)
- GI50 [14]: > 100 µM (inactive)
- GI50 [15]: 94.6 µM (inactive)
- GI50 [16]: > 100 µM (inactive)
- GI50 [17]: 78.7 µM (inactive)
- GI50 [18]: > 100 µM (inactive)
- GI50 [19]: > 100 µM (inactive)
- GI50 [20]: > 100 µM (inactive)

SMILES: C/C(=C\c1ccc(Cl)cc1)C(C)(C)C(=O)O
- GI50 [1]: > 100 µM (inactive)
- GI50 [2]: > 100 µM (inactive)
- GI50 [3]: > 100 µM (inactive)
- GI50 [4]: > 100 µM (inactive)
- GI50 [5]: 3.75 µM (inactive)
- GI50 [6]: > 100 µM (inactive)
- GI50 [7]: > 100 µM (inactive)
- GI50 [8]: > 100 µM (inactive)
- GI50 [9]: > 100 µM (inactive)
- GI50 [10]: > 100 µM (inactive)
- GI50 [11]: > 100 µM (inactive)
- GI50 [12]: > 100 µM (inactive)
- GI50 [13]: > 100 µM (inactive)
- GI50 [14]: > 100 µM (inactive)
- GI50 [15]: > 100 µM (inactive)
- GI50 [16]: > 100 µM (inactive)
- GI50 [17]: > 100 µM (inactive)
- GI50 [18]: > 100 µM (inactive)
- GI50 [19]: > 100 µM (inactive)
- GI50 [20]: > 100 µM (inactive)

SMILES: CCCCCCCC/C=C\CCCCCCCCNc1ccn(C2OC(COP(=O)(O)OC3CC(n4cc(F)c(=O)[nH]c4=O)OC3CO)C(O)C2O)c(=O)n1 (stereo not given)
- GI50 [1]: 0.195 µM (active)
- GI50 [2]: < 0.0255 µM (active)
- GI50 [3]: 45 µM (inactive)
- GI50 [4]: 10.4 µM (inactive)
- GI50 [5]: 0.0159 µM (active)
- GI50 [6]: 0.223 µM (active)
- GI50 [7]: 40.8 µM (inactive)
- GI50 [8]: < 0.0292 µM (active)
- GI50 [9]: > 100 µM (inactive)
- GI50 [10]: 13.2 µM (inactive)
- GI50 [11]: 0.638 µM (active)
- GI50 [12]: 32.1 µM (inactive)
- GI50 [13]: 0.433 µM (active)
- GI50 [14]: > 100 µM (inactive)
- GI50 [15]: > 41.3 µM (inactive)
- GI50 [16]: 9.62 µM (inactive)
- GI50 [17]: 0.315 µM (active)
- GI50 [18]: > 47.3 µM (inactive)
- GI50 [19]: 1.25 µM (inactive)
- GI50 [20]: > 26.7 µM (inactive)

SMILES: CC1(C)CC(C)(C)C1=NNC(N)=O
- GI50 [1]: > 100 µM (inactive)
- GI50 [2]: > 100 µM (inactive)
- GI50 [3]: > 100 µM (inactive)
- GI50 [4]: > 100 µM (inactive)
- GI50 [5]: > 100 µM (inactive)
- GI50 [6]: > 100 µM (inactive)
- GI50 [7]: > 100 µM (inactive)
- GI50 [8]: > 100 µM (inactive)
- GI50 [9]: > 100 µM (inactive)
- GI50 [10]: > 100 µM (inactive)
- GI50 [11]: > 100 µM (inactive)
- GI50 [12]: > 100 µM (inactive)
- GI50 [13]: > 100 µM (inactive)
- GI50 [14]: > 100 µM (inactive)
- GI50 [15]: > 100 µM (inactive)
- GI50 [16]: > 100 µM (inactive)
- GI50 [17]: > 100 µM (inactive)
- GI50 [18]: > 100 µM (inactive)
- GI50 [19]: > 100 µM (inactive)
- GI50 [20]: > 100 µM (inactive)

SMILES: O=[N+]([O-])/C(C(Cl)=C(Cl)Cl)=C(/Cl)SCc1ccccc1
- GI50 [1]: 1.65 µM (inactive)
- GI50 [2]: 15.2 µM (inactive)
- GI50 [3]: 18.8 µM (inactive)
- GI50 [4]: 8.43 µM (inactive)
- GI50 [5]: 1.43 µM (inactive)
- GI50 [6]: 3.94 µM (inactive)
- GI50 [7]: 2.35 µM (inactive)
- GI50 [8]: 12.4 µM (inactive)
- GI50 [9]: 5.86 µM (inactive)
- GI50 [10]: 2.47 µM (inactive)
- GI50 [11]: 34.4 µM (inactive)
- GI50 [12]: 5.65 µM (inactive)
- GI50 [13]: 6.03 µM (inactive)
- GI50 [14]: 5.09 µM (inactive)
- GI50 [15]: 2.18 µM (inactive)
- GI50 [16]: 3.01 µM (inactive)
- GI50 [17]: 1.83 µM (inactive)
- GI50 [18]: 1.74 µM (inactive)
- GI50 [19]: 0.229 µM (active)
- GI50 [20]: 20.7 µM (inactive)

SMILES: CC(=O)Oc1ccn2nc(C)c(Br)c2c1
- GI50 [1]: > 100 µM (inactive)
- GI50 [2]: > 67.1 µM (inactive)
- GI50 [3]: > 100 µM (inactive)
- GI50 [4]: 42.6 µM (inactive)
- GI50 [5]: > 76.7 µM (inactive)
- GI50 [6]: 25.5 µM (inactive)
- GI50 [7]: 31.8 µM (inactive)
- GI50 [8]: > 53.8 µM (inactive)
- GI50 [9]: > 100 µM (inactive)
- GI50 [10]: 64.1 µM (inactive)
- GI50 [11]: > 100 µM (inactive)
- GI50 [12]: > 100 µM (inactive)
- GI50 [13]: > 58.2 µM (inactive)
- GI50 [14]: > 100 µM (inactive)
- GI50 [15]: > 100 µM (inactive)
- GI50 [16]: 65.3 µM (inactive)
- GI50 [17]: > 100 µM (inactive)
- GI50 [18]: 25.6 µM (inactive)
- GI50 [19]: 25.9 µM (inactive)
- GI50 [20]: > 100 µM (inactive)
